Assay results: ChEMBL document CHEMBL1201862, “PubChem BioAssay data set” (2004)
Activity calls are given as the source filed them.

Columns and labels:
Cytochrome P450 3A4 = Cytochrome P450 3A4 (Homo sapiens, UniProt P08684);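 further: CYP3A4 tested as one member of a cytochrome P450 panel screen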
Cytochrome P450 1A2 = target: T1, Cytochrome P450 1A2 (Homo sapiens, UniProt P05177);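 further: PubChem cytochrome P450 panel assay, CYP1A2 panel member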
T1 sequence (P05177 whole entry): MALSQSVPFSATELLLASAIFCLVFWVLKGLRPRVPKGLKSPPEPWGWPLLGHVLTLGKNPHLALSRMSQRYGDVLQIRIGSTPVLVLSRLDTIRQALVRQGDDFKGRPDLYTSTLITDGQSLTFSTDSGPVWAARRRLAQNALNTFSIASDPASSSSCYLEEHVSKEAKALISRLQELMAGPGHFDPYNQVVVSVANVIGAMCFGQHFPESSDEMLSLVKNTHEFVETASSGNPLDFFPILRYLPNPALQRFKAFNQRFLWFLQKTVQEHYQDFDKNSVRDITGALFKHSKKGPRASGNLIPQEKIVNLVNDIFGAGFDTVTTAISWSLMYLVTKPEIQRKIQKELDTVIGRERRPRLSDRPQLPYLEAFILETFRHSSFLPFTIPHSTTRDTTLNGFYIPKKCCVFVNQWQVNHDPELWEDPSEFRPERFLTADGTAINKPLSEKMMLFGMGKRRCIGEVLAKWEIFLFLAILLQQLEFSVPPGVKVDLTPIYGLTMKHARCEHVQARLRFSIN

[1] = target: Dual specificity tyrosine-phosphorylation-regulated kinase 1A (Rattus norvegicus, UniProt Q63470); format: biochemical, Homo sapiens; settings: read-out: AC50
Vero [2] = test: cells; format: functional; settings: Chlorocebus sabaeus
Vero [3] = test: cells; format: functional, cell-based; settings: Chlorocebus sabaeus
Cytochrome P450 2C9 = Cytochrome P450 2C9 (Homo sapiens, UniProt P11712)
[4] = target: T2, Calpain-2 catalytic subunit (Sus scrofa, UniProt P43367); test: pig calpain II inhibitor potency, dose response, biochemical, fluorogenic peptide substrate (AID 1420); format: functional
T2 sequence (P43367 whole entry): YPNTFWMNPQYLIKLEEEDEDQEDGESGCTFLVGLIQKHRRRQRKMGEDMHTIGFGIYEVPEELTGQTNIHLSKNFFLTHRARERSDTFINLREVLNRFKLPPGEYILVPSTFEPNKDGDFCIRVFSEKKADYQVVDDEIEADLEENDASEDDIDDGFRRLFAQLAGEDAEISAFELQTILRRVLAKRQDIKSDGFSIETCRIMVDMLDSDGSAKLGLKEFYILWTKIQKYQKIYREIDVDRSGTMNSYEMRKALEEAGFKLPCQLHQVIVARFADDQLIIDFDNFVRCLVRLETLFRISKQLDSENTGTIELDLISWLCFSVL

HEK293 [5] = test: cells; settings: Homo sapiens
HEK293 [6] = test: cells; settings: Homo sapiens; remark: listed apart in the source
HEK293 [7] = test: cells; format: functional, cell-based; settings: Homo sapiens
HEK293 [8] = test: NOD1 signaling inhibitors, primary screen, cell-based, luminescence, uHTS (AID 1578); format: functional; settings: Homo sapiens
HEK293 [9] = test: cells; format: functional, cell-based; settings: Homo sapiens; remark: listed apart in the source
[10] = target: T3, Nucleotide-binding oligomerization domain-containing protein 1 (Homo sapiens, UniProt Q9Y239); test: NOD1 signaling inhibitors, SAR follow-up, revised (AID 2333); format: functional
T3 sequence (Q9Y239 whole entry): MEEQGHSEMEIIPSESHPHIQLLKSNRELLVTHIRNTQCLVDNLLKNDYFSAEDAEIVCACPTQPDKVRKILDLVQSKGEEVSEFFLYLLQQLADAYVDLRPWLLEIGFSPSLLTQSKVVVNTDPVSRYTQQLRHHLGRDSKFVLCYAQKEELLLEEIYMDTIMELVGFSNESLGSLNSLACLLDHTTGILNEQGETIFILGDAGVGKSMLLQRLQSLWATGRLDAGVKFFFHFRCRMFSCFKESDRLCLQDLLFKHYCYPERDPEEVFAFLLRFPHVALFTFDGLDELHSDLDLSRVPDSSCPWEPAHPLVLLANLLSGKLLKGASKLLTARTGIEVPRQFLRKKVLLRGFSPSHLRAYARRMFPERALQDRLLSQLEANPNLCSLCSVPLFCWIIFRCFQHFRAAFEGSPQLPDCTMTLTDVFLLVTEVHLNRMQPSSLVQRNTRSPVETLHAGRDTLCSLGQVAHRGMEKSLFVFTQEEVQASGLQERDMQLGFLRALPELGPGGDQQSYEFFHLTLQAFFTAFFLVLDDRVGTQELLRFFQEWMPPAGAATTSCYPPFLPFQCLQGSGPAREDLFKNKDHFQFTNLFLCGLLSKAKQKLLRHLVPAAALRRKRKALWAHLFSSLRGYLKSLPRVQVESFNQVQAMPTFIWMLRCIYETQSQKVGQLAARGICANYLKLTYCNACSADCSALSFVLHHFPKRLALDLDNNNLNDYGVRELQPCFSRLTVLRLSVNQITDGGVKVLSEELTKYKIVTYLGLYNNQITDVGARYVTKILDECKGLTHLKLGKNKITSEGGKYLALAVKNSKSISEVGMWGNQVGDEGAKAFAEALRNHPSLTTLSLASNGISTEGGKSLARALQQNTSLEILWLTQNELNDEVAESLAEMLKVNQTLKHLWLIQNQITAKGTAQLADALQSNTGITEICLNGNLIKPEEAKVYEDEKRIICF

Tumor necrosis factor = Tumor necrosis factor (Homo sapiens, UniProt P01375); test: TNFa-triggered NF-kB activation inhibitors, SAR follow-up, cell-based, revised (AID 2337); format: functional
HEK293 [11] = test: cells; settings: Homo sapiens; remark: listed apart in the source
HEK293 [12] = test: NOD2 signaling inhibitors in MDP-stimulated cells, cell-based, uHTS, luminescence (AID 2001); format: functional; settings: Homo sapiens
[13] = target: T4, Carboxy-terminal domain RNA polymerase II polypeptide A small phosphatase 1 (Homo sapiens, UniProt Q9GZU7); test: inhibitors of CTDSP1, concentration-response testing, biochemical assay, absorbance-based, actives from ultra-high-throughput screening (AID 540297); format: functional
T4 sequence (Q9GZU7 whole entry): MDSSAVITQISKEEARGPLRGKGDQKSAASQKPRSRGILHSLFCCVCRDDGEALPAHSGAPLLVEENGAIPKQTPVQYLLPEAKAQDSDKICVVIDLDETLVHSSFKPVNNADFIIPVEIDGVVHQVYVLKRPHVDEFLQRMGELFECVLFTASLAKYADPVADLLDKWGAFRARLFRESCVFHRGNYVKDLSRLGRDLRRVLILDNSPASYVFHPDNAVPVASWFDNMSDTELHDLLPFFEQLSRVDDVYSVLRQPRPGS

[14] = target: T5, Rac GTPase-activating protein 1 (Homo sapiens, UniProt Q9H0H5); test: MgcRacGAP GTPase-activating activity inhibitors, confirmation, biochemical, ADP Hunter fluorescence, primary and confirmatory (AID 624330); format: functional
T5 sequence (Q9H0H5 whole entry): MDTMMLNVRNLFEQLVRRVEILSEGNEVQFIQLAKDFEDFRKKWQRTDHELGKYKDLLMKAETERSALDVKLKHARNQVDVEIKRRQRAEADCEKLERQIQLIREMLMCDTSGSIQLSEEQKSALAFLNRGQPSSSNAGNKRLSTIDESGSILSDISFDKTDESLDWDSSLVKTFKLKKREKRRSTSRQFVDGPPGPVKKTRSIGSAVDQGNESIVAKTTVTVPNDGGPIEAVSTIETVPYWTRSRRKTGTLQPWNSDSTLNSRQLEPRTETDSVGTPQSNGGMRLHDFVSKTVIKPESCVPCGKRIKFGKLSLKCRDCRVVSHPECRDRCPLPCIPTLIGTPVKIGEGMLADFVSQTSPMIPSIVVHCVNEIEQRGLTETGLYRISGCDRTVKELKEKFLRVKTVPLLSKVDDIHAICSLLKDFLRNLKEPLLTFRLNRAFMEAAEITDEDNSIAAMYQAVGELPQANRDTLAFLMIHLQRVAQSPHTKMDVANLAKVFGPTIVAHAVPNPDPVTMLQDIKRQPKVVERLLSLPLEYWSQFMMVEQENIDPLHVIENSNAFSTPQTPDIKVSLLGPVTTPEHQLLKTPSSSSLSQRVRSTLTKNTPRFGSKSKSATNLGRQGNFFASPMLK

Cytochrome P450 3A4, sequence (P08684 whole entry): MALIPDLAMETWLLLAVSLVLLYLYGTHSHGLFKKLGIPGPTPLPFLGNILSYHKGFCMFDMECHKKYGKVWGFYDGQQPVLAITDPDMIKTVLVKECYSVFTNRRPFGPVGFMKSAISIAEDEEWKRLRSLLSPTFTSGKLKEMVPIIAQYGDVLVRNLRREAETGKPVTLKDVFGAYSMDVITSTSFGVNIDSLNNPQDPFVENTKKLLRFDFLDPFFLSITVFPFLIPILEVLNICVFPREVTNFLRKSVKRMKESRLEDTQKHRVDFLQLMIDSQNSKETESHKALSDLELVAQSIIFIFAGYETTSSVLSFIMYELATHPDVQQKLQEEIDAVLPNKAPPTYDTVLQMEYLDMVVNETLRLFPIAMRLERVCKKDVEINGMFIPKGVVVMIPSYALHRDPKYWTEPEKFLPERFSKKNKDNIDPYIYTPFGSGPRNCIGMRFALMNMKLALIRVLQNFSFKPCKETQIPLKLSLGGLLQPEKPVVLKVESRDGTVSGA
Tumor necrosis factor, sequence (P01375 whole entry): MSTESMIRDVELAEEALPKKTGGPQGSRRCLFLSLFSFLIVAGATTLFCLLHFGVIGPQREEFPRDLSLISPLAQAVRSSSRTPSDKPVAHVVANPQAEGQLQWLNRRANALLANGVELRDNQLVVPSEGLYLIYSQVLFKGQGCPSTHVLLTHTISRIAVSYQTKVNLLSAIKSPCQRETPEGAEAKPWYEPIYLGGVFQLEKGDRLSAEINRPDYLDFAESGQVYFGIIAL
Cytochrome P450 2C9, sequence (P11712 whole entry): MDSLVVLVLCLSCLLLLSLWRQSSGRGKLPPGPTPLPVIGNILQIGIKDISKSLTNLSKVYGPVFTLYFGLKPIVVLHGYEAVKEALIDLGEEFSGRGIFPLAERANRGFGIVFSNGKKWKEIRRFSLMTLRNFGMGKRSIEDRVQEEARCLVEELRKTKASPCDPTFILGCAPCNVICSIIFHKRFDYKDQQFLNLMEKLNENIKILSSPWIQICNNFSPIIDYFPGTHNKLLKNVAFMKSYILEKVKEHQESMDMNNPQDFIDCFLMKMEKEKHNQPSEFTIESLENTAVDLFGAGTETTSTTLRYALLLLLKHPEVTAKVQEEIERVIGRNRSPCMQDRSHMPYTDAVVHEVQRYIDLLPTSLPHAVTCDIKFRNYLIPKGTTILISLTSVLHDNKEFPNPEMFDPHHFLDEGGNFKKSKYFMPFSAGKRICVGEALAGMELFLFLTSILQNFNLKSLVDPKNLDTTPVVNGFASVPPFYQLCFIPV

Cc1c(-c2ccc(F)cc2)nc(N)c(C#N)c1-c1cccs1
AC50 (Cytochrome P450 3A4): inconclusive
AC50 (Cytochrome P450 1A2): 1.78 µM (inconclusive)

O=C(Nc1cccc(-c2nc3ncccc3o2)c1)c1cc2ccccc2o1
AC50 [1]: 0.942 µM (active)

Cc1cccnc1NC(=O)NC(=O)c1ccc(C(C)(C)C)s1
CC50 (Vero [2]): > 25 µM (active)
IC50 (Vero [3]): 22.4 µM (active)

O=C(c1cccc(F)c1)N1CCC2(CC1)CCN(c1ccncc1)CC2
AC50 (Cytochrome P450 3A4): inconclusive
AC50 (Cytochrome P450 2C9): 25.1 µM (inconclusive)

O=C(NC1CCCC1)C(c1ccsc1)N(Cc1ccccc1)C(=O)Cc1cccs1 (centres undefined)
IC50 [4]: > 50 µM (not active)
EC50 (HEK293 [5]): > 59.7 µM (inactive)
EC50 (HEK293 [6]): > 59.7 µM (inactive)

COc1ccc(C(O)P(=O)(OC(C)C)OC(C)C)cc1OC (centres undefined)
AC50 (Cytochrome P450 3A4): inconclusive
AC50 (Cytochrome P450 1A2): 11.2 µM (inconclusive)

COc1ccc(N2CCN(S(=O)(=O)c3ccc4c(c3)NC(=O)C(C)S4)CC2)cc1 (centres undefined)
IC50 (HEK293 [7]): 4.28 µM (active)
EC50 (HEK293 [8]): 4.87 µM (active)
IC50 (HEK293 [9]): 12.6 µM (active)
IC50 [10]: 4.54 µM (active)
IC50 (Tumor necrosis factor): 10.2 µM (active)
IC50 (HEK293 [11]): > 20 µM (inactive)
IC50 (HEK293 [12]): 7.5 µM (active)

Cn1c2ccccc2c(=O)c2ccc(C#CC3(N)CCCCC3)cc21
AC50 [1]: 23.7 µM (active)

N#CCC(=O)Nc1ccc(C(=O)OCC(=O)Nc2ccc3ccccc3c2)cc1
IC50 [13]: 68.5 µM (active)

O=C1OC(c2ccc3c(c2)OCO3)=N/C1=C\c1ccc(C(=O)O)cc1
IC50 [13]: 1.38 µM (active)

CC(C)OP(=O)(c1ccc(N(C)C)cc1)C(Nc1ccccc1)c1ccccc1 (centres undefined)
EC50 (HEK293 [5]): > 59.6 µM (inactive)
EC50 (HEK293 [6]): > 59.6 µM (inactive)

COc1nc(N)nc(NC(=O)c2cccs2)c1N=O
IC50 [14]: 116 µM (active)
EC50 (HEK293 [5]): > 59.6 µM (inactive)
EC50 (HEK293 [6]): > 59.6 µM (inactive)

CN(C)N=Nc1nc2c(c(=O)n(C)c(=O)n2C)n1CC1CO1 (centres undefined)
CC50 (Vero [2]): > 25 µM (active)
IC50 (Vero [3]): 21.9 µM (active)

COc1ccc(OC(F)(F)F)cc1CC1(C)C(=O)Nc2ccc(S(=O)(=O)NC3CCCCC3)cc21 (centres undefined)
EC50 (HEK293 [5]): > 59.6 µM (inactive)
EC50 (HEK293 [6]): > 59.6 µM (inactive)

O=C(/C=C/c1ccccc1O)c1ccc(Cl)cc1
CC50 (Vero [2]): 19.6 µM (active)

COc1ccc(/C=N/Nc2ncc(Br)cn2)c(OC)c1
IC50 [13]: 19.6 µM (active)

COc1ccc(-c2coc3cc(O)ccc3c2=O)cc1O [CALYCOSIN]
AC50 [1]: 16.1 µM (active)
